# What was measured:
# Type in all cases: cell-based, human
# [1] = system: MM.1R and MM.1S cells; assay: Multiple myeloma combinatorial screening of therapeutics by LCI, 96 well plate; settings: for overall result: response / overall result: titration effect: 3 concentrations per drug, quadruplicate, 96 well plate; for ranking among screened drugs: bortezomib 20 nM and carfilzomib at 50 nM
# Description: In this example, 6 therapeutics at 3 different concentrations, were added in quadruplicate to a 96 well plate. Thus, there were 19 different conditions: bortezomib (20, 5, 1.25 nM); carlifomib (50, 10, 2 nM); dexamethasone (300, 100, 33.3 nM); lenalidomide (50, 10, 2 nM); panobinostat (50, 10, 2 nM); pomalidomide (50, 10, 2 nM); and DMSO (300 nM) as a negative control. In clinical practice, the actual drugs/combinations may be provided by the clinician.
# In this study, a large number of cells (12,000 total cells) were screened to identify optimal drugs and concentrations. This assay, while performed on MM.1R and MM.1S cells may be performed on any suitable cell type (e.g., patient derived cancer cells from multiple myeloma, breast cancer, lung cancer, etc.). For multiple myeloma cells, a protocol for CD138+ cell enrichment from patient bone marrow is provided in the art.
# FIGS. 25B, 25C, and 25D show the results of this assay, in graphical, dot box, and table format respectively, in which multiple “best treatments” were identified using this system.
# [2] = system: MM.1S cells; assay: LCI growth of MM.1S cells treated with bortezomib or dexamethasone
# From the text: As an alternative, MM.1 cells may be used as model cell line for assay development, wherein MM.1S refers to a strain that is sensitive to a drug such as dexamethasone and MM.1R refers to a strain that is resistant to a drug such as dexamethasone. For these types of experiments, a 12 well plate may be seeded at about 1.5××10^5 cells per plate. The desired concentration of therapeutic(s) may be added to each of the six wells. Control wells may also be established using the same dilutions with DMSO as the test well containing drug. LCI imaging may begin immediately after drug addition, with images being taken every 10-15 minutes.
# About 2.5××10^5 cells per well were placed on a poly-D-lysine 12 well plate, and incubated for one hour. About 200 nM dexamethasone, 10 nM bortezomib, or DMSO (in duplicate wells) were added to each well, and images were collected every 15 mins for up to 15 hours.
# [3] = system: H929 cells; assay: Live cell interferometry (LCI) growth of H929 cells with or without bortezomib; settings: for growth trajectory compared to the control: 96 well plate
# Description: A typical assay may include, for a single plate, forming groups of seven wells. A range of concentrations may be used, with each concentration (e.g., a DMSO control, varying therapeutic concentrations of 0.039 nM, 0.156 nM, 0.625 nM, 2.5 nM, 10 nM, and 40 nM) applied to a group of wells. In some embodiments, cells are plated, therapeutic(s) are added, and images are collected every 10-15 minutes for the designated period of time.
# For development of screening techniques, H929 cells may be used. H929 cells, which may be grown in serum free conditions, have the morphologic, ultrastructural, biochemical, immunologic, and cytochemical features of plasma cells (see, Gazdar et al., Blood (1986) 67(6): 1542-9). H929 cells, derived from a human patient with multiple myeloma, are commonly used for multiple myeloma testing and are sensitive to a variety of chemotherapeutic drugs.
# In this experiment, about 1681 control cells and about 1272 bortezomib treated cells were screened.
# A small but statistically significant difference in growth rate was detected at about 4.5 hrs. […] As shown in this graph, the growth trajectories of the control and bortezomib treated cells begin to diverge between 4-5 hours. […] Here, a vertical line indicates a statistically significant point of divergence using LCI techniques between 4-5 hours.
# In this experiment, about 1889 control cells and about 1248 bortezomib treated cells were screened. Imaging was initiated after drug addition, every 12 min for 7 hrs. In this study, the normalized growth rate [1/h] of DMSO control cells was 0.0152, while the normalized growth rate [1/h] of 10 nM bortezomib treated cells was 0.0139, for a difference of −8.6% between these two growth rates. As shown by the graph, after about 5 hours, the normalized growth rate of control and 10 nM bortezomib treated cells diverged. Accordingly, under these conditions, efficacy of a drug was determined in about 5 hours.
# For this graph, the same plate (as used in FIG. 21C) was imaged (for a total of 24 hours) after drug addition. An image was taken every 12 minutes for about 15 hours. About 1867 control cells and about 1426 bortezomib treated cells were screened.
# FIGS. 22A-22D show another study using bortezomib. […] A clear response to the therapeutic was observed, with the drug EC50 expected to be between 2.5-10 nM.
smiles,measurement,setting,value
CC(C)C[C@H](NC(=O)[C@H](CCc1ccccc1)NC(=O)CN1CCOCC1)C(=O)N[C@@H](Cc1ccccc1)C(=O)N[C@@H](CC(C)C)C(=O)[C@@]1(C)CO1 [carfilzomib],overall result: response,[1],good/great response
same,overall result: titration effect,[1],good titration effect
same,ranking among screened drugs,[1],most effective drugs
Nc1cccc2c1C(=O)N(C1CCC(=O)NC1=O)C2=O (stereo not shown) [pomalidomide],overall result: response,[1],some response
same,overall result: titration effect,[1],good titration effect
Nc1cccc2c1CN(C1CCC(=O)NC1=O)C2=O (stereo not shown) [lenalidomide],overall result: response,[1],no response
same,overall result: titration effect,[1],no titration effect
C[C@@H]1C[C@H]2[C@@H]3CCC4=CC(=O)C=C[C@]4(C)[C@@]3(F)[C@@H](O)C[C@]2(C)[C@@]1(O)C(=O)CO [dexamethasone],reduction of MM.1S growth,"[2]; about 200 nM dexamethasone, imaged up to 15 hours",80.5%
CC(C)C[C@H](NC(=O)[C@H](Cc1ccccc1)NC(=O)c1cnccn1)B(O)O [bortezomib],difference between growth rates of treated and DMSO control cells,[3]; 2 nM bortezomib,−6.55%
same,normalized growth rate,"[3]; 2 nM bortezomib, imaged about 15 hours",0.0172 h⁻¹
same,difference between growth rates of treated and DMSO control cells,"[3]; 10 nM bortezomib, first 7 hrs",−8.6%
same,normalized growth rate,"[3]; 10 nM bortezomib, imaged every 12 min for 7 hrs after drug addition",0.0139 h⁻¹
same,difference between growth rates of treated and DMSO control cells,"[3]; 10 nM bortezomib, later imaging about 15 hours (total 24 hours)",−119.6%
same,normalized growth rate,"[3]; 10 nM bortezomib, same plate imaged further about 15 hours (total of 24 hours after drug addition)",0.000443 h⁻¹
same,growth trajectory compared to the control,[3]; 2.5 nM,did not show a difference in growth trajectory
same,growth trajectory compared to the control,[3]; 10 nM,significant decline in growth
same,EC50,"[3]; Homo sapiens, NCI-H929, 96 well plate, 0-40 nM titration, expected value",2.5 to 10 nM
same,EC50,"[2]; Homo sapiens, MM1.S cells, bortezomib titration",2.5 to 10 nM
same,sensitivity of cells to drug,"[2]; MM.1S, 10 nM bortezomib",sensitive
same,overall result: response,[1],good/great response
same,overall result: titration effect,[1],good titration effect
same,ranking among screened drugs,[1],most effective drugs
